Results reported in patent publication US20130061339A1, “METHOD OF DIAGNOSING TRICHOTILLOMANIA AND SIMILAR DISORDERS IN HUMANS AND RODENTS” (Purdue Research Foundation, priority 2011, published 2013).

Assays:
[1] = system: barbering behavior in C57BL/6J mice; assay: barbering in mice after 24 weeks of feed supplemented with NAC; assay type: in vivo, mouse; details: NAC 1 g/kg/day in feed, vs mice not treated with NAC, P=0.0152
Text: (§1) Thirty-two female adult C57BL/6J mice (14 barbers and 18 non-barbers) were separated into cages with no barbers, and cages with at least one barber. Cages with no barbers were fed a diet to induce barbering, as per Dufour, et al.. Cages with barbers were fed a regular mouse diet. Half the cages in each group had their feed supplemented with NAC, at a dose of 1 g/kg/day per mouse. Urine was collected at baseline and 24 weeks, to measure: reductive capacity, which reflects the sum of unused antioxidants from the diet, and antioxidants produced to defend the body. The level of 8 hydroxy-2-deoxyguanosine (8-OH-dG) which measures DNA damage from ongoing oxidative stress was also measured at 24 weeks only. Urine concentration was controlled by measuring creatinine. Six animals provided urine too dilute for analysis. Barbering and patterns of hair loss were recorded every 2 weeks. Data were analyzed using generalized linear model (GLM) and logistic regression using JMP statistical software, available from SAS, Cary N.C.

[2] = standardized reductive capacity of urine after treatment; assay type: in vivo, mouse; details: 24 weeks, NAC 1 g/kg/day in feed, mice that were and were not barbers at the start; P=0.0244
Text: as §1

[3] = system: trichotillomania patients; details: 50 trichotillomania patients, randomized double-blind placebo study [2]; cited from earlier work

CC(=O)N[C@@H](CS)C(=O)O [NAC, N-acetylcysteine]
proportion of mice barbering after 24 weeks of treatment (curative effect) ([1]; mice that were barbers at the start, regular diet): fewer mice treated with NAC were barbering | proportion of mice barbering after 24 weeks of treatment (preventative effect) ([1]; mice that were not barbers at the start, barbering-inducing diet): fewer mice treated with NAC were barbering | standardized reductive capacity of urine after treatment [2]: only increases reductive capacity in healthy mice | patients in whom symptoms were reduced [3]: 56%
